Measured values reported in US8501713B2, “Drug combinations for the treatment of duchenne muscular dystrophy” (Summit Corporation PLC, priority 2007, dated 2013).

System: Utrophin A promoter linked to a luciferase reporter gene
Assay: Luciferase reporter assay (murine H2K cells)
Assay type: cell-based
Details: for activity at 10 µM: Mus musculus, H2K mdx, luciferase level relative to control, H2K/mdx/Utro A reporter cells, compound 10 μM final concentration, read-out: Activity; for Activity: luciferase reporter assay in murine H2K cells, classified relative to control
Summary of the method: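 Compound at 10 μM final was applied for 48 hrs to plated H2K mdx myoblasts (33° C, 10% CO2, interferon-containing medium) bearing a luciferase gene under the utrophin A promoter. Luminescence from lysed cells served as read-out.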

`CC(C)C(=O)Nc1ccc2cc(-c3ccccc3)n(C)c2c1` [Example 389, N-(1-methyl-2-phenyl-1H-indol-6-yl)isobutyramide] gave an activity at 10 µM of less than 200%.

`Cc1cc2nc(-c3ccc(F)cc3F)oc2cc1C` [Example 247, 2-(2,4-difluorophenyl)-5,6-dimethylbenzo[d]oxazole] gave an activity at 10 µM of 201 to 300%.

For `Clc1ccc(-c2nc3cc(CN4CCCCC4)ccc3o2)cc1` [Example 469], the Activity was “+ (Up to 200% relative to control)”.

Compound `CC(C)C(=O)Nc1ccc2oc(-c3ccccc3)nc2c1` [Example 12, N-(2-phenylbenzo[d]oxazol-5-yl)isobutyramide] has an activity at 10 µM of 201 to 300%.

In the case of `Cc1ccc(-c2nc3cc(N)ccc3o2)cc1C` [Example 603], the Activity is reported as “+++ (Between 301% and 400% relative to control)”.

`COc1ccc(-c2nc3cc(NC(=O)c4ccncc4)ccc3o2)cc1` [Example 134, N-(2-(4-methoxyphenyl)benzo[d]oxazol-5-yl)isonicotinamide] showed an activity at 10 µM of less than 200%.

With `O=[N+]([O-])c1cc(-c2nc3ccccc3s2)ccc1Cl` [Example 523] the Activity was “+ (Up to 200% relative to control)”.

`O=C(Nc1ccc2oc(-c3cccnc3)nc2c1)c1ccc(-c2ccccc2)cc1` [Example 49, N-(2-(pyridin-3-yl)benzo[d]oxazol-5-yl)biphenyl-4-carboxamide] gave an activity at 10 µM of less than 200%.

For `O=C(Nc1ccccc1F)c1sc2ccccc2c1Cl` [Example 621], the Activity was “++++ (Above 401% relative to control)”.

`Nc1ccc(-c2nc3cc(-c4ccc(Cl)cc4)ccc3o2)cc1` [Example 356, 4-(5-(4-chlorophenyl)benzo[d]oxazol-2-yl)aniline] was tested, and the activity at 10 µM was less than 200%.

In the case of `O=C(Cc1ccccc1)Nc1ccc(-c2nc3ccccc3[nH]2)cc1` [Example 501], the Activity is reported as “+ (Up to 200% relative to control)”.

In the case of `CCS(=O)(=O)c1ccc2oc(-c3ccc(C)o3)nc2c1` [Example 441, 5-(ethylsulfonyl)-2-(5-methylfuran-2-yl)benzo[d]oxazole], the activity at 10 µM is reported as 301 to 400%.

In the case of `Cc1ccc2nc(-c3ccc(NC(=O)c4cccnc4)cc3)sc2c1` [Example 638], the Activity is reported as “+++ (Between 301% and 400% relative to control)”.

Compound `CCS(=O)(=O)c1ccc2oc(-c3ccccc3Cl)nc2c1` [Example 298, 2-(2-Chlorophenyl)-5-(ethylsulfonyl)benzo[d]oxazole] has an activity at 10 µM of 201 to 300%.

In the case of `Cc1cc2nc(-c3ccc(N)cc3O)oc2cc1C` [Example 610], the Activity is reported as “++++ (Above 401% relative to control)”.

Compound `Clc1ccc(-c2nc3cc(NCc4ccccc4)ccc3o2)cc1` [Example 184, N-benzyl-2-(4-chlorophenyl)benzo[d]oxazol-5-amine] has an activity at 10 µM of less than 200%.

With `Nc1ccc2sc(-c3cccc(Cl)c3)nc2c1` [Example 283, 2-(3-chlorophenyl)benzo[d]thiazol-5-amine] the activity at 10 µM was greater than 401%.

For `CCS(=O)(=O)c1ccc2oc(-c3ccc(N)cc3O)nc2c1` [Example 447, 5-Amino-2-(5-(ethylsulfonyl)benzo[d]oxazol-2-yl)phenol], the activity at 10 µM was 201 to 300%.

Work on `Cc1ccc(-c2nc3c(NC(=O)C(C)C)cccc3o2)cc1` [Example 236, N-(2-p-tolylbenzo[d]oxazol-4-yl)isobutyramide] yielded an activity at 10 µM of less than 200%.

With `O=C(Nc1ccc2oc(-c3ccc(Cl)c(Cl)c3)nc2c1)C1CC1` [Example 351, N-(2-(3,4-dichlorophenyl)benzo[d]oxazol-5-yl)cyclopropanecarboxamide] the activity at 10 µM was greater than 401%.

`O=C(Nc1ccc2oc(-c3ccc(F)cc3)nc2c1)c1ccco1` [Example 2, N-(2-(4-fluorophenyl)benzo[d]oxazol-5-yl)furan-2-carboxamide] was tested, and the activity at 10 µM was less than 200%.

For `CC(C)C(=O)Nc1ccc2oc(C3CCOCC3)nc2c1` [Example 349, N-(2-(tetrahydro-2H-pyran-4-yl)benzo[d]oxazol-5-yl)isobutyramide], the activity at 10 µM was less than 200%.

`COc1ccccc1C(=O)Nc1ccc2oc(-c3ccccc3)nc2c1` [Example 26, 2-methoxy-N-(2-phenylbenzo[d]oxazol-5-yl)benzamide] showed an activity at 10 µM of less than 200%.

With `CCS(=O)(=O)c1ccc2oc(-c3ccc(Cl)cn3)nc2c1` [Example 393, 2-(5-chloropyridin-2-yl)-5-(ethylsulfonyl)benzo[d]oxazole] the activity at 10 µM was 201 to 300%.

`CC(C)C(=O)Nc1ccc2oc(-c3cccc(Cl)c3)nc2c1` [Example 231, N-(2-(3-chlorophenyl)benzo[d]oxazol-5-yl)isobutyramide] showed an activity at 10 µM greater than 401%.

Work on `Nc1ccc2oc(-c3ccc(-c4ccccc4)cc3)nc2c1` [Example 401, 2-(biphenyl-4-yl)benzo[d]oxazol-5-amine] yielded an activity at 10 µM of 301 to 400%.

`O=C(Nc1ccc2oc(-c3ccc(C(F)(F)F)cc3)nc2c1)c1ccncc1` [Example 122, N-(2-(4-(trifluoromethyl)phenyl)benzo[d]oxazol-5-yl)isonicotinamide] was tested, and the activity at 10 µM was less than 200%.

`CC(C)C(=O)Nc1cc2oc(-c3ccc4c(c3)OCO4)nc2cc1Cl` [Example 398, N-(2-(benzo[d][1,3]dioxol-5-yl)-5-chlorobenzo[d]oxazol-6-yl)isobutyramide] gave an activity at 10 µM of less than 200%.

For `CCN(CC)c1ccc(-c2nc3cc(NC(=O)c4ccc(Cl)cc4)ccc3o2)cc1` [Example 63, 4-chloro-N-(2-(4-(diethylamino)phenyl)benzo[d]oxazol-5-yl)benzamide], the activity at 10 µM was less than 200%.

`Cc1ccc(-c2nc3cc(Br)cnc3o2)cc1` [Example 212, 6-bromo-2-p-tolyloxazolo[5,4-b]pyridine] was tested, and the activity at 10 µM was 201 to 300%.

`Cc1nc2ccc(NC(=O)NC(=O)c3ccccc3Cl)cc2o1` [Example 468] was tested, and the Activity was “+ (Up to 200% relative to control)”.

In the case of `O=C(O)c1ccc2oc(-c3ccccc3)nc2c1` [Example 107, 2-phenylbenzo[d]oxazole-5-carboxylic acid], the activity at 10 µM is reported as 301 to 400%.

With `Nc1ccc2oc(-c3ccccc3Cl)nc2c1` [Example 206, 2-(2-chlorophenyl)benzo[d]oxazol-5-amine] the activity at 10 µM was 201 to 300%.

For `Cn1c(CNc2ccc(Cl)cc2)nc2ccccc21` [Example 666], the Activity was “++ (Between 201% and 300% relative to control)”.

Compound `COc1ccc2cc(-c3nc4cc(N)ccc4o3)ccc2c1` [Example 404, 2-(6-methoxynaphthalen-2-yl)benzo[d]oxazol-5-amine] has an activity at 10 µM of 201 to 300%.

Compound `CCN(CC)c1ccc(-c2nc3cc(-c4ccccc4)ccc3o2)cc1` [Example 145, N,N-diethyl-4-(5-phenylbenzo[d]oxazol-2-yl)aniline] has an activity at 10 µM of less than 200%.

In the case of `O=C(Nc1ccc2oc(-c3ccc(Cl)cc3)nc2c1)c1cc(Cl)cc(Cl)c1` [Example 95, 3,5-dichloro-N-(2-(4-chlorophenyl)benzo[d]oxazol-5-yl)benzamide], the activity at 10 µM is reported as less than 200%.

`CCCCC(=O)Nc1ccc2oc(-c3ccc(N(CC)CC)cc3)nc2c1` [Example 77, N-(2-(4-(diethylamino)phenyl)benzo[d]oxazol-5-yl)pentanamide] showed an activity at 10 µM of 201 to 300%.

`CCCC(=O)Nc1ccc2oc(-c3ccc(C(F)(F)F)cc3)nc2c1` [Example 125, N-(2-(4-(trifluoromethyl)phenyl)benzo[d]oxazol-5-yl)butyramide] gave an activity at 10 µM of less than 200%.

`CCCc1ccc2oc(-c3cccc(C(=O)O)c3)nc2c1` [Example 80, 3-(5-propylbenzo[d]oxazol-2-yl)benzoic acid] gave an activity at 10 µM of less than 200%.

Compound `O=C(Cc1ccccc1)Nc1ccc2oc(-c3cccnc3)nc2c1` [Example 50, 2-phenyl-N-(2-(pyridin-3-yl)benzo[d]oxazol-5-yl)acetamide] has an activity at 10 µM of less than 200%.
